Experiment [1] has as its system T. cruzi epimastigotes (Y strain). Put plainly: Trypanocidal activity, proliferation of T. cruzi epimastigotes (MTT). Format: cell-based. Particulars: Trypanosoma cruzi, 96 h, read-out: %ITcP: T. cruzi (epimastigotes) % inhibition proliferation. The procedure:
The trypanocidal activity of compounds 7–39 was evaluated on the viability of T. cruzi epimastigotes (Y Strain). Parasites were cultivated in LIT medium supplemented with 10% FBS. The MTT method was used with minor modifications. Next, 2 × 10^6 parasites/mL were seeded in a 96-well plate, adding 50 μM of each derivative dissolved in DMSO (final concentration remained below 1%). The plate was incubated for 96 h at 29 °C. Then, 5 mg mL^−^1 of 3-(4,5-dimethylthiazol-2-yl)-2,5-diphenyl tetrazolium bromide (MTT) was added and incubated in darkness for 4 h. After this time, acidic isopropanol (4N) was added and the plate was read at 540 nm in a spectrophotometer Synergy HT (Biotek). Benznidazole (50 µM) was used as a reference drug.

In another experiment the test system is β-hematin formation. Nature of the experiment: Inhibition of β-hematin formation in vitro. Format: biochemical. The note with it: n = 3; read-out: IC50 (βHF) inhibition of β-hematin formation (± SEM). The procedure: The assay was performed according to previously reported protocols. Hemin chloride (50 μL, 4 mM) in DMSO (5.2 mg mL^−1) was pipetted into 96-well microplates. Different concentrations (0.1–100 mM) of the compounds in DMSO were added in triplicate (50 μL) with a final concentration of 0.025 mM–25 mM/well. Water (50 μL) or DMSO (50 μL) were used as controls. […] Next, the plates were incubated at 37 °C for 48 h and subsequently centrifuged (4000 rpm × 15 min). The supernatant was washed twice with DMSO (200 μL) and resuspended in NaOH (200 μL, 0.2 N). The solubilized products were diluted (1:2) with NaOH (0.1 N), and the plates were read in an ELISA reader at 405 nm (Microplate Reader, BIORAD-550). The results are expressed as % IβHF.

For the next experiment, the system named is P. berghei ANKA. Put plainly: Four-day suppressive test in P. berghei-infected mice. It counts as in vivo, Plasmodium berghei (male Balb-C mice). Particulars: for Sd: Survival days (± SEM): 20 mg kg−1 ip once daily, days 1–4 post-infection; for Sd: Survival days (± SEM) / %P: Percentage of parasitemia (± SEM): n = 6; for %P: Percentage of parasitemia (± SEM): fourth day post-infection, 20 mg kg−1 ip once daily for 4 days; for Survival: surviving mice/total, 20 mg kg−1 ip for 4 days. The procedure: Male Balb-C mice with a weight of 18–22 g were fed with a commercial diet ad libitum under standard procedures of animal care following the aforementioned method approved by the Ethics Committee of the Institute of Immunology. The animals were infected with a rodent malaria strain of Plasmodium berghei ANKA. A million infected erythrocytes, in phosphate-buffered saline solution (PBS, 10 mM, pH 7.4, 0.1 mL), were inoculated ip to infect the animal. The parasitemia was inspected by continuous microscopic examination of Giemsa-stained smears.
One million P. berghei, injected in the caudal vein i.v, were used to infect the mice (n = 6). After two hours of inoculation, the compounds that were active in vitro were dissolved in DMSO (0.1 M) and subsequently diluted with Saline-Tween 20 solution (2%), and administered ip for 4 days (20 mg kg^−^1). The parasite load was evaluated on the fourth day by examining Giemsa-stained smears. Chloroquine (20 mg kg^−^1) was used as the positive control and saline solution as the negative control. Non-treated mice were used as a baseline control for survival times. The survival days and percentage of parasitemia were used to express the results.

A further experiment deals with VERO cells. Nature of the experiment: Cytotoxicity assay in VERO cells (MTT). It counts as cell-based. The note with it: Chlorocebus sabaeus, 72 h. The procedure: The in vitro evaluations of compounds toxicity by MTT in VERO cells were performed as described in brief: VERO cells culture in DMEM, BSF 10%, were counted in suspension, seeded at 2 × 10^4 cells/well (100 μL) into a 96-well microplate, and incubated at 37 °C in a humidified 5% CO2 incubator for 24 h. After the incubation period, compounds were added in different concentrations: 50, 100, 150, 200, and 500 μM. The plate was incubated for 72 h in the same conditions. Then, 5 mg mL^−^1 of 3-(4,5-dimethylthiazol-2-yl)-2,5-diphenyl tetrazolium bromide (MTT) was added and incubated in darkness for 4 h. After this time, DMSO was added and the plate was read at 540 nm in a spectrophotometer Synergy HT (Biotek). The test was carried out in triplicate including untreated cells and reference drug controls.

“And” between values parts separate entries of the source, which are not always exact repeats. Equal values may be shown once. Bounds are passed on as bounds.

Regarding `COc1ccc(OC)c2c1C/C(=C\c1ccc(SCc3ccccc3)cc1)C2=O` [compound 12, (E)-2-[4-(Benzylthio)benzylidene]-2,3-dihydro-4,7-dimethoxyinden-1-one], in experiment [1], the inhibition at 50 µM is 18.5 ± 2.9%. In the experiment on β-hematin formation, the IC50 (commonly the point on the concentration scale where inhibition reaches its midpoint) came out at 0.66 ± 0.1 µM. Also, in the experiment with P. berghei ANKA, the “Sd: Survival days (± SEM)” value was 12.3 ± 2.40 days and 12.3 ± 2.4 days; the “%P: Percentage of parasitemia (± SEM)” value was 12.5 ± 3.1%; the Survival is 0/6. Besides, the IC50 in the experiment on VERO cells was greater than 150 µM.

Turning to `COc1cc2c(cc1OC)C(=O)/C(=C/c1ccc(SCc3ccccc3)cc1)C2` [compound 11, (E)-2-[4-(Benzylthio)benzylidene]-2,3-dihydro-5,6-dimethoxyinden-1-one], the inhibition at 50 µM in experiment [1] was determined as 40 ± 8.2%. Besides, the IC50 in the experiment on β-hematin formation worked out at 0.82 ± 0.1 µM. Besides, in the experiment on P. berghei ANKA, the “Sd: Survival days (± SEM)” value is 14.2 ± 2.16 days and 14.2 ± 2.2 days; the “%P: Percentage of parasitemia (± SEM)” value was found to be 7.6 ± 2.3%; the Survival is listed as 0/6. Also, in the experiment with VERO cells, the IC50 is greater than 150 µM.

`COc1ccc2c(c1OC)C/C(=C\c1ccc(SCc3ccccc3)cc1)C2=O` [compound 10, (E)-2-[4-(Benzylthio)benzylidene]-2,3-dihydro-4,5-dimethoxyinden-1-one]: the inhibition at 50 µM in experiment [1] was 33 ± 5.6%. Further, the IC50 in the experiment with β-hematin formation is 33.1 ± 2.5 µM. Also, in the experiment with P. berghei ANKA, the “Sd: Survival days (± SEM)” value is 18.8 ± 4.91 days and 18.8 ± 4.9 days; the “%P: Percentage of parasitemia (± SEM)” value was 9.1 ± 2.44%; the Survival is on record as 0/6. The IC50 with VERO cells was greater than 150 µM.

Source of the values: paper PMC10385825, “Synthesis of Benzocycloalkanone-Based Michael Acceptors and Biological Activities as Antimalarial and Antitrypanosomal Agents” (Molecules, 2023).
